{"source": "patent US20260027068A1", "about": "“METHODS OF ADM[…]-KETAMINE” (Perception Neuroscience, Inc., priority 2022, published 2026)", "tested_on": "subjects with TRD", "assay": "Clinician-Administered Dissociative States Scale (CADSS)", "protocol": "The Investigational Medicinal Product (IMP) R(−)-ketamine hydrochloride in sterile water for intravenous injection was investigated as an […] treatment of TRD. The International Union of Pure and Applied Chemistry (IUPAC) name is of the IMP is (2R)-2-(2-chlorophenyl)-2-(methylamino)cyclohexan-1-one. Subjects received the solution at either 30 mg or 60 mg dose, or a placebo. The IMP or placebo was administered on Day 1 as a single IV infusion via an electronic infusion pump over 40 minutes. The duration of study participation for each subject was up to 29 days including a screening period, a 3-day in-clinic visit, and 2 follow-up visits. 101 subjects were enrolled in approximately 20 study centers in the EU and the US.\nThe CADSS was to assess the alertness or dissociative state of subjects administered R(−)-ketamine. The study staff evaluated the subject's degree of dissociation by administering the CADSS questionnaire pre-dose; at 40 minutes post-dose (at EoI); and at 2 and 4 hours post-dose.", "key": {"[1]": {"conditions": "30 mg, 40 min post infusion start, n 33"}, "[2]": {"conditions": "30 mg, 2 hours post infusion start, n 33"}, "[3]": {"conditions": "30 mg, 4 hours post infusion start, n 33"}, "[4]": {"conditions": "30 mg, 6 hours post infusion start, n 10"}, "[5]": {"conditions": "30 mg, to 40 min post infusion start, n 33"}, "[6]": {"conditions": "30 mg, to 2 hours post infusion start, n 33"}, "[7]": {"conditions": "30 mg, to 4 hours post infusion start, n 33"}, "[8]": {"conditions": "60 mg, 40 min post infusion start, n 35"}, "[9]": {"conditions": "60 mg, 2 hours post infusion start, n 35"}, "[10]": {"conditions": "60 mg, 4 hours post infusion start, n 34"}, "[11]": {"conditions": "60 mg, 6 hours post infusion start, n 11"}, "[12]": {"conditions": "60 mg, to 40 min post infusion start, n 35"}, "[13]": {"conditions": "60 mg, to 2 hours post infusion start, n 35"}, "[14]": {"conditions": "60 mg, to 4 hours post infusion start, n 34"}}}
{"molecule": "CN[C@@]1(c2ccccc2Cl)CCCCC1=O", "note": "[PCN 101]", "values": [{"measurement": "CADSS score, Mean", "setting": "[1]", "value": 3.9}, {"measurement": "CADSS score, Median", "setting": "[1]", "value": 2.0}, {"measurement": "CADSS score, Mean", "setting": "[2]", "value": 1.1}, {"measurement": "CADSS score, Median", "setting": "[2]", "value": 0.0}, {"measurement": "CADSS score, Mean", "setting": "[3]", "value": 0.4}, {"measurement": "CADSS score, Median", "setting": "[3]", "value": 0.0}, {"measurement": "CADSS score, Mean", "setting": "[4]", "value": 0.0}, {"measurement": "CADSS score, Median", "setting": "[4]", "value": 0.0}, {"measurement": "CADSS change from baseline, Mean", "setting": "[5]", "value": 3.9}, {"measurement": "CADSS change from baseline, Median", "setting": "[5]", "value": 2.0}, {"measurement": "CADSS change from baseline, Mean", "setting": "[6]", "value": 1.1}, {"measurement": "CADSS change from baseline, Median", "setting": "[6]", "value": 0.0}, {"measurement": "CADSS change from baseline, Mean", "setting": "[7]", "value": 0.4}, {"measurement": "CADSS change from baseline, Median", "setting": "[7]", "value": 0.0}, {"measurement": "CADSS change from baseline, Mean", "setting": "30 mg, to 6 hours, n 10", "value": "−0.1"}, {"measurement": "CADSS change from baseline, Median", "setting": "30 mg, to 6 hours, n 10", "value": 0.0}, {"measurement": "CADSS score, Mean", "setting": "[8]", "value": 4.3}, {"measurement": "CADSS score, Median", "setting": "[8]", "value": 0.0}, {"measurement": "CADSS score, Mean", "setting": "[9]", "value": 1.1}, {"measurement": "CADSS score, Median", "setting": "[9]", "value": 0.0}, {"measurement": "CADSS score, Mean", "setting": "[10]", "value": 0.3}, {"measurement": "CADSS score, Median", "setting": "[10]", "value": 0.0}, {"measurement": "CADSS score, Mean", "setting": "[11]", "value": 0.0}, {"measurement": "CADSS score, Median", "setting": "[11]", "value": 0.0}, {"measurement": "CADSS change from baseline, Mean", "setting": "[12]", "value": 4.0}, {"measurement": "CADSS change from baseline, Median", "setting": "[12]", "value": 0.0}, {"measurement": "CADSS change from baseline, Mean", "setting": "[13]", "value": 0.8}, {"measurement": "CADSS change from baseline, Median", "setting": "[13]", "value": 0.0}, {"measurement": "CADSS change from baseline, Mean", "setting": "[14]", "value": "−0.0"}, {"measurement": "CADSS change from baseline, Median", "setting": "[14]", "value": 0.0}, {"measurement": "CADSS change from baseline, Mean", "setting": "60 mg, to 6 hours, n 11", "value": 0.0}, {"measurement": "CADSS change from baseline, Median", "setting": "60 mg, to 6 hours, n 11", "value": 0.0}]}
{"molecule": "CN[C@@]1(c2ccccc2Cl)CCCCC1=O.Cl", "note": "[R(−)-ketamine, (2R)-2-(2-chlorophenyl)-2-(methylamino)cyclohexan-1-one]", "values": [{"measurement": "Subjects with post-baseline CADSS >4 and change from baseline >0, number", "setting": "30 mg (n = 33)", "value": 12, "unit": "n"}, {"measurement": "Subjects with post-baseline CADSS >4 and change from baseline >0, percent", "setting": "30 mg (n = 33)", "value": "(36.4) %"}, {"measurement": "Subjects with post-baseline CADSS >4 and change from baseline >0, number", "setting": "60 mg (n = 35)", "value": 8, "unit": "n"}, {"measurement": "Subjects with post-baseline CADSS >4 and change from baseline >0, percent", "setting": "60 mg (n = 35)", "value": "(22.9) %"}]}
